Each structure is given as a SMILES string. Entries after “also recorded” stand apart in the source; their conditions may differ.

Data on two molecules can be found in US5298523A, “Method for treating transplant patients using mycalamide compounds” (priority 1992, dated 1994).

In data set [1] the test system is graft vs. host reaction, CB6F1 mice grafted with BALB/c splenocytes. As to the kind of experiment: Graft vs. host reaction (Simonsen splenomegaly assay). It counts as in vivo, mouse. Conditions: Experiment #2, 0.2 mg/kg i.p., Days 1-7. Here is the method:
Graft vs. host reaction. In vivo studies with mycalamide A utilized the […]→F1, GVHR model (Simonsen splenomegaly assay). CB6F1 male mice, 4 weeks of age, were injected intraperitoneally with 5×10^7 splenocytes from BALB/c male mice, 8 weeks of age, on day 0 (BALB/c→CB6F1). A syngeneic control group (CB6F1 →CB6F1) was similarly prepared and served as the negative control. For experiment 1, the grafted mice were divided into 5 treatment groups of 5 mice each. Groups were injected intraperitoneally with mycalamide A (dissolved initially in ethanol followed by dilution in sterile phosphate-buffered saline as a vehicle) or vehicle alone on days 1-7. For experiment 2, the grafted mice were divided into 7 treatment groups of 5 mice each and similarly injected intraperitoneally with mycalamide A, an immunosuppressive standard, didemnin B, or vehicle alone on days 1-7. On day 7 all groups were sacrificed, spleens excised, and the mean spleen weight and stimulation index calculated for each group. The stimulation index was calculated as follows: [formula] A spleen index of 1.3 or greater is considered a positive response.
^a CB6F1 mice (5 per group) were grafted with 5 × 10^7
BALB/c splenocytes, intraperitoneally on Day 0. Groups were injected
intraperitoneally with drug or vehicle on Days 1-7. Positive indicates
grafted mice receiving vehicle alone.
^b Number of surviving mice at the end of the experiment.
^c Stimulation index (SI) = (spleen weight of test group/body weight
of test group)/(spleen weight of syngeneic group/body weight of syngeneic
^d Suppression = [(SI of positive control) (SI of test group)]/[(SI
of positive control) (SI of syngeneic group)].
^e Didemnin B immunosuppressive standard.

Data set [2] deals with murine CD4^+ T cells. As to the kind of experiment: Activation of CD4+ T cells by anti-CD3 mAb/mB7. Conditions: anti-CD3/mB7. It is filed as cell-based, murine (BALB/c). The protocol: (§1) (A) Costimulation of T cells with anti-CD3 mAb and mB7. […] (B) Costimulation of T cells with mB7 and PMA. […] All cultures were incubated for 48 hours and pulsed with 1 μCi [ ^3 H] thymidine/well for the last 6 hours of the incubation period to assay for T cell proliferation.
(§2) (A) Costimulation of T cells with anti-CD3 mAb and mB7. 2×10^5 purified BALB/c CD4^+ T lymphocytes were stimulated with the indicated concentrations of anti-CD3 mAb in the presence of medium (.largecircle.), 2×10^4 paraformaldehyde-fixed CHO-mB7 cells (.quadrature.), or 2×10^4 paraformaldehyde-fixed CHO-mB7 cells in the presence of 0.1 nM FK506 (.gradient.), 1 nM FK506 (Δ), or 10 nM FK506 ( ). (B) Costimulation of T cells with mB7 and PMA. 2×10^5 purified BALB/c CD4^+ T lymphocytes were stimulated with the indicated concentrations of PMA and either medium (.largecircle.), 2×10^4 paraformaldehyde-fixed CHO-mB7 cells (.quadrature.), or paraformaldehyde-fixed CHO-mB7 cells in the presence of 0.1 nM FK506 (.gradient.), 1 nM FK506 (Δ), or 10 nM FK506 ( ). All cultures were incubated for 48 hours and pulsed with 1 μCi [^3 H] thymidine/well for the last 6 hours of the incubation period to assay for T cell proliferation.
as §2, with “pM mycalamide A” for “nM FK506”
mB7-mediated activation of murine CD4^+ T cells. Mouse T cells were purified as follows: splenocytes were depleted of red blood cells by treatment with Tris-NH4 Cl. T cells were enriched by nylon wool fractionation. CD4^+ T cells from BALB/c mice were purified by two-fold treatment with a mixture of anti-MHC Class II and anti-CD8 monoclonal antibodies and rabbit complement. Chinese hamster ovary cells (CHO) and CHO cells transfected with the murine B7 molecule (CHOmB7) were fixed with 1% paraformaldehyde prior to addition to the cultures. Microcultures were set up in duplicate 96-well plates. […] All cultures were incubated for 48 hours and pulsed with 1 μCi ^3 H-thymidine/well for the last 6 hours of the incubation period to assay for T cell proliferation.

The subject of data set [3] is murine CD4^+ T cells. In words: Activation of CD4+ T cells by PMA/mB7. It counts as cell-based, murine (BALB/c). Conditions: in words. The protocol: as §1, §2
(A) Costimulation of T cells with anti-CD3 mAb and mB7. […]

Data set [4] can be described thus: T cell viability by trypan blue exclusion. It is filed as cell-based, murine. To be noted: t cells; 1 nM, Experiment 1, 20 hours; read-out: percentage of trypan blue-positive cells. The protocol: (§3) Determination of mycalamide A toxicity. The toxicity of mycalamide A on murine splenocytes and human PBL was determined using a colorimetric assay, based on the ability of viable cells to convert the colorless tetrazolium salt, 3-(4,5-dimethylthiazol-2yl)-2,5-diphenyl tetrazolium bromide (MTT) to a colored formazan product and trypan blue exclusion. For the colorimetric assay, a volume of 0.075 ml of an MTT solution (550 μg/ml of MTT in TCM) was added to test and control wells containing one of the populations of splenocytes or test wells and incubated for 5-6 hours following the initial incubation period. Microtiter plates were centrifuged at 100× g, supernatants carefully removed, and a volume of 0.20 ml of isopropyl alcohol was added to each well to dissolve the formazan crystals. The absorbance at 570 nm was determined for each well using an ELISA plate reader. […] As an additional parameter of toxicity, wells containing cultured lymphocytes with various dilutions of mycalamide A were examined with trypan blue, and the percentage of dye-excluding (viable) cells was determined.
(§4) Compounds were added as indicated. Cells were harveste
(§5) Each data point represents the mean value o

Data set [5] has as its system T cells. In words: T cell viability by trypan blue exclusion. To be noted: 1 nM. It counts as cell-based, murine. Here is the method:
as §3, §4, §5

As for `CC[C@H](C)[C@H]1NC(=O)[C@@H](NC(=O)[C@@H](CC(C)C)N(C)C(=O)[C@@H]2CCCN2C(=O)C(C)O)[C@@H](C)OC(=O)[C@H](Cc2ccc(OC)cc2)N(C)C(=O)[C@@H]2CCCN2C(=O)[C@H](CC(C)C)NC(=O)[C@@H](C)C(=O)[C@H](C(C)C)OC(=O)C[C@@H]1O` (stereo partly shown) [Didemnin B, didemnin B, reference compound], in data set [1], the “% Suppression” value is 113%, the “Number of surviving mice at the end of the experiment” value was 5/5 and the Stim. index worked out at 0.93.

For `C=CC[C@@H]1/C=C(\C)C[C@H](C)C[C@H](OC)[C@H]2O[C@@](O)(C(=O)C(=O)N3CCCC[C@H]3C(=O)O[C@H](/C(C)=C/[C@@H]3CC[C@@H](O)[C@H](OC)C3)[C@H](C)[C@@H](O)CC1=O)[C@H](C)C[C@@H]2OC` [FK506, reference compound], in data set [2] (FK506 vs CsA), the “potency compared to CsA” value is given as “approximately 100 times”. In data set [2] (in words), the “effect on anti-CD3/mB7 activation of CD4+ cells” value is on record as “parallel those of CsA; also recorded: blocks the anti-CD3/mB7 activation of CD4^+ cells”. In addition, in data set [3], the “effect on PMA/CHO-mB7 stimulation of CD4+ cells” value is “not affected”. Further, the cytotoxicity at 20 h, 0.001 µM in data set [4] is less than 2%. Further, the “number of cells excluding trypan blue” value in data set [5] (Experiment 1, 20 hours) is reported as 1.40 × 10^6 cells. For the same molecule, in data set [5] (Experiment 2, 20 hours), the “number of cells excluding trypan blue” value is recorded as 1.64 × 10^6 cells and the “percentage of trypan blue-positive cells” value is on record as less than 2%.
